Data as given in ChEMBL document CHEMBL3507680, “University of Dundee, Gates Library screen for HepG2 cell viability”.

Assay: Human HepG2 cell viability assay in 384 well format
Assay type: toxicity, cell-based
Design: dose 125 nL, time 70.5 hour; cytotoxicity at 70.5 h: concentration not given beside the values
Conditions: HepG2 cells, read-out: Inhibition

| Compound | cytotoxicity at 70.5 h [%] |
| --- | --- |
| Cc1ncc2c(n1)CN(CCCc1ccccc1)CC2 | 0.152 |
| O=C(CCn1ccc2ccccc21)N1CCC(Nc2cccnn2)CC1 | -3.47 |
| Cc1cccnc1CN1CCN(C(=O)[C@@]23CNC[C@@H]2CN(C)C3)CC1 | -8.36 |
| CCCc1cc(NC2CCc3ncnn3C2)n2ncnc2n1 (stereo unspecified) | 0.783 |
| CC(=O)Nc1ccc2nn(C(C)C)cc2c1 | -8.47 |
| CC(=O)N1CCC(C)(c2cc[nH]n2)CC1 | -3.17 |
| Cn1ncc2c1CCCC2NCc1cccc(C(F)(F)F)c1 (stereo unspecified) | -5.81 |
| Cc1ccccc1CSc1nc(N)cc(N2CC[C@@H](O)C2)n1 | -6.37 |
| O=C1[C@H]2CN(CC3CC3)C[C@H]2CN1c1ccsc1 | -3.2 |
| CCSC1(CNc2ncc(Br)cn2)CCOCC1 | -5.62 |
| Cc1nc(CCNC(=O)N2CCC(Cc3cnn(C)c3)C2)cs1 (stereo unspecified) | -29.6 |
| Cc1ccc(C(=O)NCCCNS(C)(=O)=O)cc1C | -9.61 |
| Cn1c(=O)c2c(n3ncnc13)NC(=O)CC2c1cccc(Br)c1 (stereo unspecified) | -9.38 |
| COCC(=O)N1CCN(Cc2cccnc2)c2ncccc2C1 | 1.38 |
| CCc1nc(-c2noc3ccc(C(=O)NCCN(C)C)cc23)co1 | -4.76 |
| CS(=O)(=O)Nc1cccc(CNC(=O)CCC(=O)c2cccs2)c1 | -3.24 |
| O=C(NCC1(N2CCOCC2)CCSC1)Nc1ccc(F)cc1 (stereo unspecified) | -6.94 |
| CCNc1ccnc(N2CCCC(CCOC)(C(=O)O)C2)n1 (stereo unspecified) | 23.1 |
| Cn1cc(N2CC3(COCCN(Cc4nccs4)C3)OCC2=O)cn1 (stereo unspecified) | -9.93 |

| Compound | cytotoxicity at 70.5 h [%] |
| --- | --- |
| Cc1cc(C(=O)N[C@H]2CN(CCO)C[C@@H]2C2CC2)sc1C | -3.28 |
| CC1CN(C(=O)c2cccc(OCc3cscn3)c2)CCO1 (stereo unspecified) | -1.66 |
| CC(C)N1C(=O)CC(NC(=O)c2cc(Cl)sc2Cl)C1=O (stereo unspecified) | -8.84 |
| COc1ccc(CCC(=O)Nc2ccc3ncn(C)c(=O)c3c2)cc1 | -2.91 |
| CN(CC(F)(F)F)C(=O)CNC(=O)N1CCC(N2CCCC2)C1 (stereo unspecified) | -9.53 |
| CN1[C@@H](C(=O)NCC2CC2)C[C@@H]2CN(c3ncccn3)C[C@@H]21 | -3.13 |
| CCn1nnc2c1C(COC)CN(Cc1cccs1)C2 (stereo unspecified) | 1.81 |
| CNC(=O)C(CCSC)NC(=O)c1ccc2ccccc2n1 (stereo unspecified) | -11 |
| CN(C)C(=O)CN1CCCC1c1nccnc1Nc1ccccn1 (stereo unspecified) | -8.51 |
| O=C(Cc1cccs1)N1CCOCC1c1ccccc1 (stereo unspecified) | 15.2 |
| CC(C)N(CC(N)=O)Cc1csc(C(C)(C)C)n1 | 3.87 |
| CCn1cc(CN2CCCN(C(=O)c3sccc3C#N)CC2)cn1 | 37.5 |
| O=C(c1ccco1)N1CC[C@@H]2CN(C3CCOCC3)CCO[C@@H]2C1 | 0.698 |
| CC(C)n1cnnc1SCCN(C)c1ccccc1 | -6.85 |
| Cc1nccn1CCC1CCN(C2CCC3(CCNCC3)CC2)CC1 | 13.6 |
| O=c1c2cccc(C(F)(F)F)c2ncn1C1CCNC1 (stereo unspecified) | -13.6 |
| CCN1CCC(CC(=O)N2CCc3sc(C(=O)N(C)C)cc3C2)CC1 | 20.6 |
| CCC(C)Oc1ccc(CNCCNS(C)(=O)=O)cc1Cl (stereo unspecified) | -0.417 |
| Cc1ccc(C(=O)N2CCCC(NC(=O)C(C)C)C2)c(O)c1 (stereo unspecified) | -3.17 |

| Compound | cytotoxicity at 70.5 h [%] |
| --- | --- |
| NC(=O)C1Cn2ccnc2C2(CCN(C(=O)NC3CCCC3)CC2)O1 (stereo unspecified) | -8.91 |
| Cc1cccc(C(=O)N2C[C@@H]3[C@H](CC(=O)N4CCCC4)[C@@H]3C2)n1 | -6.1 |
| COc1c(CNC(c2ccccc2)c2ccc(F)cc2)c(C)nn1C (stereo unspecified) | 24 |
| Cn1cc(C(=O)N2CC[C@@]3(O)CCN(C4CCCCC4)C[C@H]3C2)cn1 | -2.94 |
| O=C([C@@H]1CCCN1c1nccc(Nc2ccccc2)n1)N1CCCCC1 | 20.9 |
| CCN1CC2(CC1=O)CN(C(C)=O)CCN(C(=O)c1ccco1)C2 (stereo unspecified) | -9.45 |
| CCN(C)C[C@@H]1CN(S(=O)(=O)c2ccc(OC)cc2)C[C@@H]1CO | 10.4 |
| CC(C)C(C)NC(=O)Nc1cccc2c1CCN(S(C)(=O)=O)C2 (stereo unspecified) | -2.03 |
| CN1CCc2[nH]nc(C(=O)N3CCCC4(CN(C)C(=O)O4)C3)c2C1 (stereo unspecified) | -6.4 |
| CC(O)CN(CC(=O)NC(=O)NC1CC1)c1ccccc1 (stereo unspecified) | -11 |
| Cc1nn(C)c2cnn(CC(=O)NCc3ccccc3F)c12 | -8.04 |
| CCC(C)N(Cc1ccncc1)Cc1ccccc1Cn1cccn1 (stereo unspecified) | -11.3 |
| Cc1nccn1CCN(C)c1nc(-c2ccc(Cl)cc2)nc2c1CNC2 | -3.99 |
| O=C(c1cccnc1)N1C[C@H]2CN(Cc3cccc(F)c3)C(=O)[C@H]2C1 | -3.89 |
| Cn1c(Cn2ccnc2)nnc1C1CCN(C(=O)c2ccccn2)CC1 | 5.03 |
| CCn1cc(CCC(=O)NCc2csc(C3CC3)n2)c(C)n1 | -11.7 |
| O=C(C1CCS(=O)(=O)CC1)N1CCC(c2ccc(F)cc2)C1 (stereo unspecified) | 4.45 |
| Cc1nc(C)n(CC2CCCN(CCOc3ccc(F)cc3)C2)n1 (stereo unspecified) | -3.5 |
